Test results reported in PubChem BioAssay AID212 (DTP/NCI, 2004).
Several values for one entry are separate records, joined by “and”; a condition that tells them apart may be missing. Identical values can stand only once. Records with an inconclusive call do not appear.

Test system: BDF1 mice, colon carcinoma 38 sc, T/C %
Assay: NCI In Vivo Anticancer Drug Screen. Data for tumor model Colon Carcinoma 38 (subcutaneous) in B6D2F1 (BDF1) mice
Conditions: endpoint: median tumor weight (est.), higher = larger tumour
How it was run: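 T/C readout: treated group (T) measurement over vehicle control group (C) measurement. Endpoint is survival or tumor size in mice bearing a transplanted tumor.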

[1] = dose: 50.0 mg/kg/injection, schedule: Q07DX002 (ip), vehicle: saline
[2] = dose: 200.0 mg/kg/injection, schedule: Q07DX002 (ip), vehicle: saline
[3] = dose: 400.0 mg/kg/injection, schedule: Q07DX002 (ip), vehicle: saline
[4] = dose: 25.0 mg/kg/injection, schedule: Q07DX002 (ip), vehicle: Klucel (hydroxypropylcellulose) (HPC)
[5] = dose: 50.0 mg/kg/injection, schedule: Q07DX002 (ip), vehicle: Klucel (hydroxypropylcellulose) (HPC)
[6] = dose: 100.0 mg/kg/injection, schedule: Q07DX002 (ip), vehicle: Klucel (hydroxypropylcellulose) (HPC)
[7] = dose: 200.0 mg/kg/injection, schedule: Q07DX002 (ip), vehicle: Klucel (hydroxypropylcellulose) (HPC)
[8] = dose: 12.5 mg/kg/injection, schedule: Q07DX002 (ip), vehicle: saline
[9] = dose: 25.0 mg/kg/injection, schedule: Q07DX002 (ip), vehicle: saline
[10] = dose: 400.0 mg/kg/injection, schedule: Q07DX002 (ip), vehicle: Klucel (hydroxypropylcellulose) (HPC)
[11] = dose: 12.5 mg/kg/injection, schedule: Q07DX002 (ip), vehicle: saline with Tween-80
[12] = dose: 25.0 mg/kg/injection, schedule: Q07DX002 (ip), vehicle: saline with Tween-80

CCCCCC[C@@H](O)C/C=C\CCCCCCCC(=O)OCCO
T/C [1]: 113 % of control | T/C (dose: 100.0 mg/kg/injection, schedule: Q07DX002 (ip), vehicle: saline): 72 % of control | T/C [2]: 113 % of control | T/C [3]: 117 % of control | T/C (dose: 800.0 mg/kg/injection, schedule: Q07DX002 (ip), vehicle: saline): 74 % of control | T/C (dose: 1600.0 mg/kg/injection, schedule: Q07DX002 (ip), vehicle: saline): 85 % of control

CCCC(=O)OCc1cc(=O)n(C)c2c3c4c(cc12)c(C)cc(=O)n4CO3
T/C (dose: 6.25 mg/kg/injection, schedule: Q07DX002 (ip), vehicle: Klucel (hydroxypropylcellulose) (HPC)): 99 % of control | T/C (dose: 12.5 mg/kg/injection, schedule: Q07DX002 (ip), vehicle: Klucel (hydroxypropylcellulose) (HPC)): 96 % of control | T/C [4]: 162 % of control | T/C [5]: 150 % of control | T/C [6]: 64 % of control

C=CC(C)NC(=S)NNC(=S)NC (centres undefined)
T/C (dose: 50.0 mg/kg/injection, schedule: Q07DX002 (ip), vehicle: saline + alcohol): 97 % of control | T/C (dose: 100.0 mg/kg/injection, schedule: Q07DX002 (ip), vehicle: saline + alcohol): 112 % of control | T/C (dose: 200.0 mg/kg/injection, schedule: Q07DX002 (ip), vehicle: saline + alcohol): 104 % of control | T/C (dose: 400.0 mg/kg/injection, schedule: Q07DX002 (ip), vehicle: saline + alcohol): 86 % of control

CCCC[C@H]1C(=O)O[C@H](C)[C@H](NC(=O)c2cccc(NC=O)c2O)C(=O)O[C@@H](C)[C@@H]1OC(=O)CC(C)C
T/C (dose: 0.5 mg/kg/injection, schedule: Q07DX002 (ip), vehicle: Klucel (hydroxypropylcellulose) (HPC)): 177 % of control | T/C (dose: 1.0 mg/kg/injection, schedule: Q07DX002 (ip), vehicle: Klucel (hydroxypropylcellulose) (HPC)): 224 % of control

CC(C)NC(=O)N(CCCCBr)N=O
T/C [4]: 90 % of control | T/C [5]: 86 % of control | T/C [6]: 70 % of control | T/C [7]: 56 % of control

CC1=CC(=NN=c2cc(C)n([O-])c(C)c2)C=C(C)[N+]1=O
T/C [8]: 82 % of control | T/C [9]: 108 % of control | T/C (dose: 25.0 mg/kg/injection, schedule: Q07DX002 (ip), vehicle: suspension in saline): 123 % of control | T/C [1]: 73 % of control | T/C (dose: 100.0 mg/kg/injection, schedule: Q07DX002 (ip), vehicle: suspension in saline): 97 % of control | T/C [2]: 99 % of control | T/C (dose: 200.0 mg/kg/injection, schedule: Q07DX002 (ip), vehicle: suspension in saline): 121 % of control | T/C [3]: 90 % of control | T/C (dose: 400.0 mg/kg/injection, schedule: Q07DX002 (ip), vehicle: suspension in saline): 98 % of control

C=C(C)[C@]12CC(C)C34OC(/C=C\C=C\CCCCCCCCC)(O[C@@H]1[C@@H]3[C@@H]1O[C@]1(CO)[C@@H](O)[C@]1(O)C(=O)C(C)=C[C@@H]41)O2 (some centres undefined)
T/C (dose: 0.18 mg/kg/injection, schedule: Q07DX002 (ip), vehicle: distilled water + alcohol): 109 % of control | T/C (dose: 0.37 mg/kg/injection, schedule: Q07DX002 (ip), vehicle: distilled water + alcohol): 76 % of control | T/C (dose: 0.75 mg/kg/injection, schedule: Q07DX002 (ip), vehicle: distilled water + alcohol): 105 % of control | T/C (dose: 1.5 mg/kg/injection, schedule: Q07DX002 (ip), vehicle: distilled water + alcohol): 75 % of control

Cc1ccc(S(=O)(=O)NC(=O)C2C(=O)CC3(CCCCC3)CC2=O)cc1
T/C [5]: 104 % of control | T/C [6]: 112 % of control | T/C [7]: 95 % of control | T/C [10]: 102 % of control

COc1ccc(C(=O)/C(Br)=C/C(=O)O)cc1
T/C (dose: 4.0 mg/kg/injection, schedule: Q07DX002 (ip), vehicle: saline): 104 % of control | T/C (dose: 8.0 mg/kg/injection, schedule: Q07DX002 (ip), vehicle: saline): 98 % of control | T/C (dose: 16.0 mg/kg/injection, schedule: Q07DX002 (ip), vehicle: saline): 104 % of control | T/C (dose: 32.0 mg/kg/injection, schedule: Q07DX002 (ip), vehicle: saline): 71 % of control

CC(=O)OCC12CCC(C)=CC1OC1C(OS(C)(=O)=O)C(=O)C2(C)C12CO2 (centres undefined)
T/C (dose: 0.25 mg/kg/injection, schedule: Q07DX002 (ip), vehicle: saline): 189 % of control | T/C (dose: 5.0 mg/kg/injection, schedule: Q07DX002 (ip), vehicle: saline): 98 % of control | T/C (dose: 10.0 mg/kg/injection, schedule: Q07DX002 (ip), vehicle: saline): 88 % of control

O=CCC(O)C(O)C(O)CO (centres undefined)
T/C (dose: 600.0 mg/kg/injection, schedule: Q07DX002 (ip), vehicle: suspension in saline): 108 % of control | T/C (dose: 1800.0 mg/kg/injection, schedule: Q07DX002 (ip), vehicle: suspension in saline): 96 % of control | T/C (dose: 2400.0 mg/kg/injection, schedule: Q07DX002 (ip), vehicle: suspension in saline): 102 % of control | T/C (dose: 3600.0 mg/kg/injection, schedule: Q07DX002 (ip), vehicle: suspension in saline): 74 % of control

Cc1ccc(C2NC(=O)c3ccccc3N2)s1 (centres undefined)
T/C [4]: 99 % of control | T/C [5]: 92 % of control | T/C [6]: 103 % of control | T/C [7]: 92 % of control | T/C [10]: 84 % of control | T/C (dose: 800.0 mg/kg/injection, schedule: Q07DX002 (ip), vehicle: Klucel (hydroxypropylcellulose) (HPC)): 90 % of control

NC(C(=O)O)c1ccc(CBr)cc1 (centres undefined)
T/C [11]: 151 % of control | T/C [12]: 106 % of control | T/C (dose: 50.0 mg/kg/injection, schedule: Q07DX002 (ip), vehicle: saline with Tween-80): 182 % of control

C1OC1CN1CCN(CC2CO2)CC1 (centres undefined)
T/C (dose: 3.12 mg/kg/injection, schedule: Q07DX002 (ip), vehicle: saline): 98 % of control | T/C (dose: 3.12 mg/kg/injection, schedule: Q07DX003 (ip), vehicle: saline): 1 % of control | T/C (dose: 6.25 mg/kg/injection, schedule: Q07DX003 (ip), vehicle: saline): 23 % of control | T/C [8]: 77 % of control | T/C (dose: 12.5 mg/kg/injection, schedule: Q07DX003 (ip), vehicle: saline): 9 % of control | T/C [9]: 100 % of control | T/C (dose: 25.0 mg/kg/injection, schedule: Q07DX003 (ip), vehicle: saline): 20 % of control | T/C [1]: 77 % of control | T/C (dose: 50.0 mg/kg/injection, schedule: Q07DX003 (ip), vehicle: saline): 4 % of control

C/C=C/C=C/c1cc2cc3c(c(O)c2c(=O)[nH]1)C1(CC3)C(O)=c2c(=O)c3c(=O)cc(OC)c(=O)c=3c(=O)c2=C1O (centres undefined)
T/C (dose: 0.06 mg/kg/injection, schedule: Q07DX002 (ip), vehicle: DMSO): 74 % of control and 97 % of control | T/C (dose: 0.12 mg/kg/injection, schedule: Q07DX002 (ip), vehicle: DMSO): 115 % of control and 91 % of control | T/C (dose: 0.15 mg/kg/injection, schedule: Q07DX002 (ip), vehicle: DMSO): 81 % of control | T/C (dose: 0.25 mg/kg/injection, schedule: Q07DX002 (ip), vehicle: DMSO): 57 % of control | T/C (dose: 0.3 mg/kg/injection, schedule: Q07DX002 (ip), vehicle: DMSO): 85 % of control | T/C (dose: 0.5 mg/kg/injection, schedule: Q07DX002 (ip), vehicle: DMSO): 79 % of control and 93 % of control | T/C (dose: 0.61 mg/kg/injection, schedule: Q07DX002 (ip), vehicle: DMSO): 87 % of control | T/C (dose: 1.0 mg/kg/injection, schedule: Q07DX002 (ip), vehicle: DMSO): 114 % of control and 102 % of control | T/C (dose: 1.22 mg/kg/injection, schedule: Q07DX002 (ip), vehicle: DMSO): 81 % of control | T/C (dose: 2.0 mg/kg/injection, schedule: Q07DX002 (ip), vehicle: DMSO): 121 % of control

CCC(=O)N(C)[C@@H](C)C(=O)O[C@H]1CC(=O)N(C)c2cc(cc(OC)c2Cl)C/C(C)=C/C=C[C@@H](OC)[C@@]2(O)C[C@H](OC(=O)N2)[C@@H](C)[C@@H]2O[C@@]12C
T/C (dose: 7.5 micrograms/kg/injection, schedule: Q07DX002 (ip), vehicle: saline + alcohol): 62 % of control | T/C (dose: 30.0 micrograms/kg/injection, schedule: Q07DX002 (ip), vehicle: saline + alcohol): 84 % of control | T/C (dose: 120.0 micrograms/kg/injection, schedule: Q07DX002 (ip), vehicle: saline + alcohol): 108 % of control

Cc1cc(N(CC(C)Br)CC(C)Br)ccc1N=Nc1ccccc1C(=O)O (centres undefined)
T/C (dose: 1.56 mg/kg/injection, schedule: Q07DX002 (ip), vehicle: saline with Tween-80): 87 % of control and 96 % of control | T/C (dose: 6.25 mg/kg/injection, schedule: Q07DX002 (ip), vehicle: saline with Tween-80): 85 % of control | T/C [11]: 95 % of control and 102 % of control | T/C [12]: 73 % of control and 86 % of control
